Measured values: patent US9839618B2, “Compositions and methods relating to proliferative diseases” (The Penn State Research Foundation, priority 2010, dated 2017)
Like-named read-outs stand apart in the source and are kept apart here.

What was measured:
[1] = system: UACC 903 metastatic melanoma cells; assay: MTS assay viability IC50, UACC 903; assay type: cell-based, human
Procedure: (§1) The efficacy of leelamine to kill other cancer types is measured and the IC50 for cell lines derived from carcinomas of breast, lung, prostate, connective tissue, pancreas and colon determined. The MTS assay as described in Sharma, A. et al., Clin Cancer Res, 2009, 15:1674-85; and Madhunapantula, S. V. et al., Mol Cancer Ther, 2008, 7:1297-308 is used to establish the IC50 at 24, 48 and 72 hours of leelamine treatment for normal human epidermal melanocytes (FOM103), normal skin fibroblast cells (FF2441), normal skin keratinocytes (HFK) and compared to melanocytic lesion cells from the radial-, vertical- and metastatic melanoma stages. 5×10^3 cells per well in 100 μL of media are plated and grown in a 96-well plate for 48 to 72 hours and treated with either DMSO vehicle control or 0.62 to 40 μmol/L of leelamine for 24, 48 or 72 hours. IC50 values for each compound in μmol/L for respective cell lines are measured from three independent experiments using GraphPad Prism version 4.01 (GraphPad Software, La Jolla, Calif.). Leelamine is found to be not toxic to normal cells and effective to kill melanoma cells as well as non-melanoma cancer cells as shown in Table 1 in FIG. 20. Leelamine is 3- to 4-fold more specific at killing metastatic melanoma than normal cells, supporting cancer therapeutic utility at concentrations<2 μmol/L.
(§2) 5×10^3 cells per well in 100 μL of media are plated and grown in a 96-well plate for 48 to 72 hours and treated with either DMSO vehicle control or 0.62 to 40 μmol/L of leelamine for 24, 48 or 72 hours. IC50 values for each compound in μmol/L for respective cell lines are measured from three independent experiments using GraphPad Prism version 4.01 (GraphPad Software, La Jolla, Calif.).
(§3) The IC50 and effect of liposomal preparations of leelamine on viability of normal human melanocytes, fibroblasts and melanoma cells UACC 903 and 1205 Lu are measured using the MTS assay (Promega, Madison, Wis.). Empty liposomes or liposomes containing abietic acid are used as controls. 5×10^3 cells per well in 100 μL of media are plated and grown in a 96-well plate for 48 or 72 hours for melanoma and normal cell lines, respectively. The cells are then treated with 0.62 to 40 μmol/L of liposome alone, a liposomal preparation of abietic acid, or with Nanolipolee-007 for 24 hours. IC50 values for each liposome in μmol/L for respective cell lines are measured from three independent experiments using GraphPad Prism version 4.01 (GraphPad Software, La Jolla, Calif.). Nanolipolee-007 retains the growth inhibitory activity of leelamine in killing melanoma cells in culture and specifically kills melanoma cells compared to normal cells, FIG. 24.
(§4) Dehydroabietylamine, its N-substituted derivatives and the corresponding dihydroabietylamine and its N-substituted derivatives are tested for their capability to inhibit cell growth of cancer cell lines, including melanoma (UACC 903, 1205Lu), breast (MCF-7), fibrosarcoma (HT-1080), colon (Caco-2), and prostate (PC-3) cancer cell lines. Viability and IC50 of normal human fibroblasts and cell lines from melanoma and other malignancies following treatment with all the agents are measured using the MTS assay (Promega, Madison, Wis.). Human fibroblast FF2441 cells, metastatic melanoma cell lines 1205 Lu and UACC 903 as well as cancer cell lines representing sarcoma (HT-1080), prostate (PC-3, LNCaP), breast (MCF-7) and lung (A-549) are maintained in DMEM (Invitrogen, Carlsbad, Calif.) supplemented with 10% FBS (Hyclone, Logan, Utah) in a 5% CO2 atmosphere, humidified 37° C. incubator. 5×10^3 cells per well in 100 μL of media are plated and grown in a 96-well plate for 48 to 72 h and treated with either DMSO vehicle control or 0.62 to 40 μmol/L for 24, 48 or 72 h. IC50 values for each compound in […] for respective cell lines are measured from three independent experiments using GraphPad Prism version 4.01 (GraphPad Software, La Jolla, Calif.). […]

[2] = system: 1205 Lu metastatic melanoma cells; assay: MTS assay viability IC50, 1205 Lu; assay type: cell-based, human
Procedure: as §1, §2, §3, §4

[3] = system: FF2441 normal human fibroblasts; assay: MTS assay viability IC50, normal fibroblasts; assay type: cell-based; conditions: read-out: IC50 Normal fibroblast FF2441
Procedure: as §1
as §2, with “Calif.). […]” for “Calif.).”
(§5) Dehydroabietylamine, its N-substituted derivatives and the corresponding dihydroabietylamine and its N-substituted derivatives are tested for their capability to inhibit cell growth of cancer cell lines, including melanoma (UACC 903, 1205Lu), breast (MCF-7), fibrosarcoma (HT-1080), colon (Caco-2), and prostate (PC-3) cancer cell lines. Viability and IC50 of normal human fibroblasts and cell lines from melanoma and other malignancies following treatment with all the agents are measured using the MTS assay (Promega, Madison, Wis.). Human fibroblast FF2441 cells, metastatic melanoma cell lines 1205 Lu and UACC 903 as well as cancer cell lines representing sarcoma (HT-1080), prostate (PC-3, LNCaP), breast (MCF-7) and lung (A-549) are maintained in DMEM (Invitrogen, Carlsbad, Calif.) supplemented with 10% FBS (Hyclone, Logan, Utah) in a 5% CO2 atmosphere, humidified 37° C. incubator. 5×10^3 cells per well in 100 μL of media are plated and grown in a 96-well plate for 48 to 72 h and treated with either DMSO vehicle control or 0.62 to 40 μmol/L for 24, 48 or 72 h. IC50 values for each compound in […] for respective cell lines are measured from three independent experiments using GraphPad Prism version 4.01 (GraphPad Software, La Jolla, Calif.). FIG. 52 is a graph showing IC50 values for leelamine and compounds 4a, 4b and 5a in treated fibroblasts (FF2441) compared to melanoma cells. Selectivity ratio here is defined as ratio of activity against fibroblasts compared to activity against melanoma cells. Leelamine is relatively selective with a ratio of >6 and >4 for UACC903 and 1205Lu melanoma cells. The selectivity ratio of compound 4a is ˜4 and ˜3 for UACC903 and 1205Lu and for compound 4b is ˜4 for both cell lines. The selectivity ratio of compound 5a is ˜4 for UACC903 and >2 for 1205Lu cells.

[4] = system: melanoma cell lines (UACC 903, 1205Lu); assay: MTS assay, melanoma cell lines (cell line not given); assay type: cell-based, human; conditions: Homo sapiens; Example 8
Procedure: The mechanistic basis of leelamine's activity to inhibit melanoma cell growth is determined by examining the effect of leelamine on 1) cell viability using the MTS assay; 2) proliferation using a BrdU incorporation assay; 3) apoptosis using an assay for caspase-3/7 activity; and 4) cell cycle analysis. The MTS assay as described in Sharma, A. et al., Clin Cancer Res, 2009, 15:1674-85; and Madhunapantula, S. V. et al., Mol Cancer Ther, 2008, 7:1297-308 is used to assay cell viability. Rates of proliferation and apoptosis are measured by seeding 5×10^3 cells in 96-well plates, followed by treatment with 0.62 to 10 μmol/L of leelamine for 24 hours. Proliferating and apoptotic cells are quantified using a colorimetric cell proliferation ELISA BrdU kit (Roche diagnostics, Indianapolis, Ind.) or Apo-ONE Homogenous caspase-3/7 assay kit (Promega, Madison, Wis.), respectively, as described in Sharma, A. et al., Clin Cancer Res, 2009, 15:1674-85; and Madhunapantula, S. V. et al., Mol Cancer Ther, 2008, 7:1297-308.
as §5

[5] = Homo sapiens, UACC-903, Table 6, read-out: IC50 Metastatic melanoma UACC 903
[6] = Homo sapiens, UACC-903, Table 7, read-out: IC50 (UACC903)
[7] = Homo sapiens, 1205Lu, Table 6, read-out: IC50 Metastatic melanoma 1205 Lu
[8] = Homo sapiens, UACC-903, Example 8, read-out: IC50 UACC 903
[9] = Homo sapiens, UACC-903, Table 4, read-out: IC50 Metastatic Melanoma Cell line UACC903
[10] = Homo sapiens, 1205Lu, Table 4, read-out: IC50 Metastatic Melanoma Cell line 1205Lu
[11] = Homo sapiens, 1205Lu, Example 8, read-out: IC50 1205Lu
[12] = Table 4, read-out: IC50 Metastatic Melanoma Cell line UACC903
[13] = Table 4, read-out: IC50 Metastatic Melanoma Cell line 1205Lu

Row | SMILES | IC50 [1, 5] [µM] | IC50 [1, 6] [µM] | IC50 [2, 7] [µM] | IC50 [4] [µM] | IC50 ([3]; Table 6) [µM] | other results
1 | CC(C)c1ccc2c(c1)CCC1[C@](C)(CNC(=O)C(Br)(Br)Br)CCC[C@]21C (stereo partly drawn) [GPR-5L, N-{[(1R,4aS)-1,4a-dimethyl-7-(propan-2-yl)-1,2,3,4,4a,9,10,10a-octahydrophenanthren-1-yl]methyl}-2,2,2-tribromoacetamide] | 1.01 ± 0.08 | 1.01 | 1.88 ± 0.21 |  |  | 
2 | CC(C)c1ccc2c(c1)CCC1[C@](C)(CNC(=O)c3ccccc3)CCC[C@]21C (stereo partly drawn) [Compound 5c, N-(((1R,4aS)-7-isopropyl-1,4a-dimethyl-1,2,3,4,4a,9,10,10a-octahydrophenanthren-1-yl)methyl)benzamide] | > 100 | > 100 |  | > 100 |  | 
3 | CCOC[C@]1(C)CCC[C@]2(C)C3CCC(C(C)C)C=C3C=CC12 (some centres unmarked) [Compound 2a] |  |  |  |  |  | IC50 [1, 12]: > 100 µM; IC50 ([3]; Table 4): > 100 µM; IC50 [2, 13]: > 100 µM
4 | CC(C)C1C=C2C=CC3[C@](C)(CO)CCC[C@]3(C)C2CC1 (stereo partly drawn) [Compound 2b, [(1R,4aR)-1,4a-dimethyl-7-(propan-2-yl)-1,2,3,4,4a,4b,5,6,7,100a-decahydrophenanthren-1-yl]methanol] |  |  |  |  | > 100 | IC50 ([1]; Example 8, read-out: IC50 UACC 903): 53 µM; IC50 [1, 12]: 52.6 ± 1.34 µM; IC50 ([1]; Table 6, read-out: IC50 Metastatic melanoma UACC 903): 52.6 ± 1.34 µM; IC50 ([1]; Table 7, read-out: IC50 (UACC903)): 52.6 µM; IC50 ([3]; Table 4): > 100 µM; IC50 ([2]; Example 8, read-out: IC50 1205Lu): 60 µM; IC50 [2, 13]: 60.4 ± 1.61 µM; IC50 ([2]; Table 6, read-out: IC50 Metastatic melanoma 1205 Lu): 60.4 ± 1.61 µM
5 | CC(C)c1ccc2c(c1)CCC1[C@](C)(CNC(c3ccccc3)(c3ccccc3)c3ccccc3)CCC[C@]21C (stereo partly drawn) [Compound 5e, {[(1R,4aS)-1,4a-dimethyl-7-(propan-2-yl)-1,2,3,4,4a,9,10,10a-octahydrophenanthren-1-yl]methyl}(triphenylmethyl)amine] |  |  |  | > 100 |  | 
6 | CC(=O)NC[C@]1(C)CCC[C@]2(C)c3ccc(C(C)C)cc3CCC12 (stereo partly drawn) [Compound 5b, N-{[(1R,4aS)-1,4a-dimethyl-7-(propan-2-yl)-1,2,3,4,4a,9,10,10a-octahydrophenanthren-1-yl]methyl}acetamide] | 89.4 ± 3.31 | 89.4 |  |  | > 100 | IC50 [1, 8]: 89 µM; IC50 [2, 11]: > 50 µM; IC50 [2, 10]: > 50 µM
7 | CC(C)c1ccc2c(c1)CCC1[C@](C)(CNCc3ccccc3)CCC[C@]21C (stereo partly drawn) [Compound 5d, N-benzyl-1-((1R,4aS)-7-isopropyl-1,4a-dimethyl-1,2,3,4,4a,9,10,10a-octahydrophenanthren-1-yl)methanamine] | 6.05 | 6.05 |  | 6 |  | IC50 [1, 9]: 6.05 ± 1.32 µM

The next lines start with results.

Row | IC50 [1, 5] [µM] | IC50 [1, 6] [µM] | IC50 [2, 7] [µM] | IC50 [4] [µM] | SMILES | IC50 ([3]; Table 6) [µM] | other results
8 | 70.1 ± 1.8 | 70.1 | 81.1 ± 2.09 |  | CC(C)C1=CC2=CCC3[C@](C)(CCC[C@@]3(C)C(N)=O)C2CC1 (stereo partly drawn) [Compound 3a, (1R,4aR)-1,4a-dimethyl-7-(propan-2-yl)-1,2,3,4,4a,4b,5,6,10,10a-decahydrophenanthrene-1-carboxamide] | > 100 | IC50 [1, 8]: 70 µM; IC50 [1, 9]: 70.1 ± 1.8 µM; IC50 [2, 10]: 81.1 ± 2.09 µM
9 | 24.4 ± 1.33 | 24.4 | 24.3 ± 2.5 |  | CCN(CC)C[C@]1(C)CCC[C@]2(C)C3CCC(C(C)C)=CC3=CCC12 (stereo partly drawn) [Compound 4c, {[(1R,4aR)-1,4a-dimethyl-7-(propan-2-yl)-1,2,3,4,4a,4b,5,6,10,10a-decahydrophenanthren-1-yl]methyl}diethylamine] | > 100 | IC50 [1, 8]: 24.4 µM; IC50 [1, 9]: 24.4 ± 1.33 µM; IC50 [2, 11]: 24.3 µM; IC50 [2, 10]: 24.3 ± 2.5 µM
10 |  |  |  | > 100 | CCN(CC)C(=O)[C@]1(C)CCC[C@]2(C)C3CCC(C(C)C)=CC3=CCC21 (stereo partly drawn) [Compound 3c, (1R,4aR)-N,N-diethyl-1,4a-dimethyl-7-(propan-2-yl)-1,2,3,4,4a,4b,5,6,10,10a-decahydrophenanthrene-1-carboxamide] |  | 
11 | > 100 | > 100 | > 100 | > 100 | CNC(=O)[C@]1(C)CCC[C@]2(C)C3CCC(C(C)C)=CC3=CCC21 (stereo partly drawn) [Compound 3b, (1R,4aR)-N,1,4a-trimethyl-7-(propan-2-yl)-1,2,3,4,4a,4b,5,6,10,10a-decahydrophenanthrene-1-carboxamide] | > 100 | 
